System: hESC-derived hematopoietic cells
Test: NK cell differentiation from spin-EBs on OP9-DL1, flow cytometry (Example 2)
Type: cell-based, human
Conditions: Days 11+21 and 11+28, 1 μM SR-1 or 10 nM TCDD
Experimental: FIG. 13A. Schema of hESC differentiation into lymphoid cells as spin-embryoid bodies (spin-EBs). hESCs are made into spin-EBs at Day 0 and cultured in Stage 1 conditions with defined cytokines to promote mesoderm development for 11 days. At Day 11, spin-EBs are transferred onto OP9-DL1 in the presence of NK cell differentiation media (NKDM) to promote lymphoid differentiation. Cells are treated beginning at Day 11+0 with either 1 μM SR-1, 10 nM TCDD, or DMSO vehicle control with media exchanges and/or harvesting performed every week for up to 4 weeks. FIG. 13B. At Day 11, differentiated spin-EBs (photo) are phenotyped for CD34^+CD45^+ expression and transferred to OP9-DL1 stroma in NKDM. Non-adherent hematopoietic cells cultured either in the presence of DMSO, SR-1, or TCDD were assessed for developing NK cell immunophenotype based on CD56^+CD45^+ expression at Days 11+21, and 11+28; representative flow cytometry plots from one differentiation are shown. FIG. 13C. Quantification of fold-change in total percentage of CD56^+CD45^+ cells at both Day 11+21 and Day 11+28 when treated with DMSO, SR-1, or TCDD. SR-1 and TCDD treatments for each differentiation are normalized to DMSO controls. n=3 independent differentiation experiments, error bars represent SEM, *p<0.05 as assessed with two-way ANOVA+Tukey-Kramer multiple comparisons post-hoc test. FIG. 13D. […]

| Compound | development of NK cells (CD56+CD45+) compared to DMSO treated controls |
| --- | --- |
| CC(C)n1cnc2c(NCCc3ccc(O)cc3)nc(-c3csc4ccccc34)nc21 [SR-1, StemReginin-1] | increased development of NK cells |
| Clc1cc2c(cc1Cl)Oc1cc(Cl)c(Cl)cc1O2 [TCDD, 2,3,7,8-tetrachlorodibenzo-p-dioxin] | fewer phenotypic NK cells |

Source: patent publication US20170121683A1, “ARYL HYDROCARBON RECEPTOR DISRUPTION AND ENHANCEMENT” (priority 2015, published 2017)
